Source: patent publication US20050256132A1, “Use of ER selective NF-kB inhibitors for the treatment of sepsis” (priority 2003, published 2005)
Like-named read-outs stand apart in the source and are kept apart here.

Legend:
[1] = system: CK; assay: Creatine kinase assay in ERα infected HAECT-1 cells (Table 2); assay type: cell-based, human; conditions: for EC50 / Emax: Homo sapiens; for EC50: HAECT1; for Emax: HAECT1, read-out: CK % Efficacy
Description: T-175 flasks of 100% confluent HAECT-1 cells (immortalized human aortic endothelial cells) were washed with 8 ml of HBSS (HEPES buffered saline solution) and infected for fours hours with 6 ml of a 1:10 dilution of Ad5-wt-hERα virus (an adenovirus transfection vector that mediates CMV promoter driven expression of human ERα) in phenol red free Endothelial Cell Basal medium (Clonetics, San Diego, Calif., Catalog # CC-3129) containing 0.25% bovine serum albumin (EDM-BSA). After four hours, cells were washed with EDM-BSA and incubated overnight in the same medium. Following overnight incubation, cells were washed with EDM-BSA and infected for 2 hours with 6 ml of a 1:10 dilution of Ad5-3x(NFκB).Luc virus (Adenovirus luciferase expression vector driven by three repeats of the MHC NFκb sites 5′ to the thymidine kinase promoter) in EDM-BSA. After two hours, cells were washed and incubated at 34° C. for one hour. Cells were then washed, trypsinized, counted, and resuspended in 95% FBS/5% dimethylsulfoxide at a concentration of […], frozen as 1 or 5 ml aliquots in cryo-vials and stored at −150° C. Control (no ER infection) cells were processed as above without Ad5-wt-hERα virus infection.
ERα infected HAECT-1 cells or control cells were thawed, diluted 42× in warm EBM-BSA, plated into 96-well plates at 0.1 ml/well and incubated for 4 hours at 34° C. Test compounds were added to the cells at 2× stocks in EBM-BSA containing 2 ng/ml IL-1β Ad6-IL-6(1250 bp).Luc virus and plates were returned to the incubator (34° C.). After […], cells were lysed with 50 μl of Promega Cell Culture Lysis reagenet for about 5 minutes at room temperature on a shaker. After lysing, 15 μl of lysate is transferred to luminometer plates for luciferase determination. Luciferase activity is evaluated using a Perkin Elmer Victor2 1420 multilabel counter. Creatine kinase was determined from the rate of increase in A340 following addition of 100 μl of CK assay reagent (Sigma catalog no. 47-10) to the remainder of the cell lysate.
For IC50 and EC50 calculations, mean IL-6, luciferase or CK values versus log10 of the compound concentration were fitted to a four parameter logistic equation. The IC50/EC50 value, ‘Hill slope,’ upper and lower limits of the curve were iteratively estimated.

[2] = system: ER/IL-6; assay: Endothelial Cell ER/IL-6 Assay, IL-6 promoter luciferase (Table 2); assay type: cell-based, human; conditions: for Emax: read-out: IL6 luc % Efficacy
Outline: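 HAECT-1 human aortic endothelial cells adenovirally expressing human ERα (or non-ER-infected controls) received compounds as 2× stocks with 2 ng/ml IL-1β and IL-6 promoter (1250 bp)-luciferase adenovirus for […] at 34 °C. ER/IL-6 was read as lysate luciferase and CK as the rate of A340 increase with CK reagent. IC50/EC50 came from four-parameter logistic fits.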

[3] = Homo sapiens, HAECT1, ERα infected HAECT-1 cells, IL-1β
[4] = Homo sapiens, HAECT1, ERα infected HAECT-1 cells, IL-1β, read-out: IL6 luc IC50
[5] = ERα infected HAECT-1 cells, IL-1β
[6] = ERα infected HAECT-1 cells, IL-1β, read-out: IL6 luc IC50

For COCCOC[C@](C#N)(C(=O)OC)[C@H](c1ccccc1OC)c1cccc2ccccc12 (relative stereo) [Example 144, Methyl (2S*,3S*)-2-cyano-2-[(2-methoxyethoxy)methyl]-3-(2-methoxyphenyl)-3-(1-naphthyl)propanoate], the EC50 [1] was 0.019 µM, the Emax [2, 3] was 103% and the IC50 [2, 4] was 0.007 µM.
For COC[C@](C#N)(C(=O)OC)[C@H](c1cnc2ccccc2c1)c1ccccc1OC (relative stereo) [Example 165, Methyl (2S*,3R*)-2-cyano-2-(methoxymethyl)-3-(2-methoxyphenyl)-3-quinolin-3-ylpropanoate], the Emax [1] was -22% and the Emax [2, 3] was 21%.
Work on COCCOC[C@](C#N)(C(=O)OC)[C@H](c1ccccc1OC)c1cccc2ccccc12 [Example 158, Methyl (2S,3S)-2-cyano-2-[(2-methoxyethoxy)methyl]-3-(2-methoxyphenyl)-3-(1-naphthyl)propanoate] yielded an EC50 [1] of 0.055 µM, an Emax [1] of 23% and an Emax [2, 3] of 121%. For the same molecule, the IC50 [2, 4] was 0.0045 µM.
For COCC(C#N)(C(=O)OC)C(c1ccccc1OC)c1ccnc2ccccc12 (stereo not drawn) [Example 162, Methyl (RR,SS)-2-cyano-2-(methoxymethyl)-3-(2-methoxyphenyl)-3-quinolin-4-ylpropanoate], the “CK % Efficacy” value [1] was −4%, the “IL6 luc % Efficacy” value [2, 5] was 126% and the IC50 [2, 6] was 0.546 µM.
With COC(=O)[C@@](C)(C#N)[C@H](c1cnc2ccccc2c1)c1ccccc1OC [Example 163, Methyl (SS,RR)-2-cyano-3-(2-methoxyphenyl)-2-methyl-3-(quinolin-3-yl)propanoate] the “CK % Efficacy” value [1] was −12%, the “IL6 luc % Efficacy” value [2, 5] was −32% and the IC50 [2, 6] was 0.00295 µM.
With COCCOCC(C#N)(C(=O)N1CCN(c2ncccn2)CC1)C(c1ccccc1OC)c1cccc2ccccc12 (stereo not drawn) [Example 167, (RR,SS)-2-[(2-Methoxyethoxy)methyl]-3-(2-methoxyphenyl)-3-(1-naphthyl)-2-[(4-pyrimidin-2-ylpiperazin-1-yl)carbonyl]propanenitrile] the “CK % Efficacy” value [1] was −16%, the “IL6 luc % Efficacy” value [2, 5] was 72% and the IC50 [2, 6] was 1.23 µM.
For COCCOC[C@@](C#N)(C(=O)NC(C)(C)C)[C@@H](c1ccccc1OC)c1cccc2ccccc12 [Example 169, (RR,SS)-N-(tert-Butyl)-2-cyano-2-[(2-methoxyethoxy)methyl]-3-(2-methoxyphenyl)-3-(1-naphthyl)propanamide], the “CK % Efficacy” value [1] was −8%, the “IL6 luc % Efficacy” value [2, 5] was 97% and the IC50 [2, 6] was 0.331 µM.
With COCCOCC(C#N)(C(=O)N1CC=C(c2c[nH]c3ccccc23)CC1)C(c1ccccc1OC)c1cccc2ccccc12 (stereo not drawn) [Example 172, (RR,SS)-3-[4-(1H-indol-3-yl)-3,6-dihydropyridin-1(2H)-yl]-2-[(2-methoxyethoxy)methyl]-2-[(S*)-(2-methoxyphenyl)(1-naphthyl)methyl]-3-oxopropanenitrile] the “CK % Efficacy” value [1] was −13%, the “IL6 luc % Efficacy” value [2, 5] was 149% and the IC50 [2, 6] was 0.114 µM.
For COc1ccccc1[C@H](c1cccc2ccccc12)[C@@](C)(C#N)C(=O)N1CCc2c([nH]c3ccccc23)C1 [Example 190, (2S,3S)-3-(2-methoxyphenyl)-2-methyl-3-(1-naphthyl)-2-(1,3,4,9-tetrahydro-2H-beta-carbolin-2-ylcarbonyl)propanenitrile], the IC50 [2, 4] was 0.113 µM and the melting point was 212 to 213 °C.
COc1ccccc1[C@H](c1cccc2ccccc12)[C@@](C)(C#N)C(=O)N1CCC(=O)CC1 [Example 191, (2S,3S)-3-(2-methoxyphenyl)-2-methyl-3-(1-naphthyl)-2-[(4-oxopiperidin-1-yl)carbonyl]propanenitrile] gave an IC50 ([2]; Homo sapiens, HAECT1, read-out: IL6 luc IC50) of 0.586 µM and a melting point of 209 to 210 °C.
CCC(=O)C1(c2ccccc2)CCN(C(=O)[C@](C)(C#N)[C@H](c2ccccc2OC)c2cccc3ccccc23)CC1 [Example 194, (2S,3S)-3-(2-methoxyphenyl)-2-methyl-3-(1-naphthyl)-2-[(4-phenyl-4-propionylpiperidin-1-yl)carbonyl]propanenitrile] showed an Emax [2, 3] of 150%, an IC50 [2, 4] of 0.132 µM and a melting point of 126 to 128 °C.
Work on COc1ccccc1[C@H](c1cccc2ccccc12)[C@@](C)(C#N)C(=O)N1CCC(C(C)=O)(c2ccccc2)CC1 [Example 195, (2S)-3-(4-acetyl-4-phenylpiperidin-1-yl)-2-[(S)-(2-methoxyphenyl)(1-naphthyl)methyl]-2-methyl-3-oxopropanenitrile] yielded an Emax [2, 3] of 74%, an IC50 [2, 4] of 0.71 µM and a melting point of 134 to 135 °C.
In the case of COc1ccccc1[C@H](c1cccc2ccccc12)[C@@](C)(C#N)C(=O)N1CCN(C2CCCCC2)CC1 [Example 196, (2S)-3-(4-cyclohexylpiperazin-1-yl)-2-[(s)-(2-methoxyphenyl)(1-naphthyl)methyl]-2-methyl-3-oxopropanenitrile], the Emax [2, 3] is reported as 142%, the IC50 [2, 4] is reported as 0.07 µM and the melting point is reported as 137 to 138 °C.
COCCN1CCN(C(=O)[C@](C)(C#N)[C@H](c2ccccc2OC)c2cccc3ccccc23)CC1 [Example 197, (2S)-3-[4-(2-methoxyethyl)piperazin-1-yl]-2-[(S)-(2-methoxyphenyl)(1-naphthyl)methyl]-2-methyl-3-oxopropanenitrile] showed an Emax [2, 3] of 46%, an IC50 [2, 4] of 0.039 µM and a melting point of 144 °C.
COc1ccccc1[C@H](c1cccc2ccccc12)[C@@](C)(C#N)C(=O)N1CCN(CC(=O)N2CCCC2)CC1 [Example 201, (2S,3S)-3-(2-methoxyphenyl)-2-methyl-3-(1-naphthyl)-2-{[4-(2-oxo-2-pyrrolidin-1-ylethyl)piperazin-1-yl]carbonyl}propanenitrile] gave an Emax [2, 3] of 45%, an IC50 [2, 4] of 1.09 µM and a melting point of 203 °C.
In the case of COc1ccccc1[C@H](c1cccc2ccccc12)[C@@](C)(C#N)C(=O)N1CCN(CCCN(C)C)CC1 [Example 202, (2S)-3-{4-[3-(dimethylamino)propyl]piperazin-1-yl}-2-[(S)-(2-methoxyphenyl)(1-naphthyl)methyl]-2-methyl-3-oxopropanenitrile], the Emax [2, 3] is reported as 43% and the melting point is reported as 78 to 80 °C.
In the case of COCCN1CCN(C(=O)C(C#N)(COC)C(c2ccccc2OC)c2cccc3ccccc23)CC1 (stereo not drawn) [Example 206, 3-[4-(2-methoxyethyl)piperazin-1-yl]-2-(methoxymethyl)-2-[(2-methoxyphenyl)(1-naphthyl)methyl]-3-oxopropanenitrile], the Emax [2, 3] is reported as 83%, the IC50 [2, 4] is reported as 0.345 µM and the melting point is reported as 156 to 158 °C.
In the case of COc1ccccc1C(c1cccc2ccccc12)C(C#N)(COCc1ccccc1)C(=O)N1CCN(CCN2CCOCC2)CC1 (stereo not drawn) [Example 208, 2-[(benzyloxy)methyl]-3-(2-methoxyphenyl)-2-{[4-(2-morpholin-4-ylethyl)piperazin-1-yl]carbonyl}-3-(1-naphthyl)propanenitrile], the Emax [2, 3] is reported as 50%, the IC50 [2, 4] is reported as 0.013 µM and the melting point is reported as 162 °C.
Work on COC[C@](C#N)(C(=O)N1CCN(c2ncccn2)CC1)[C@H](c1ccccc1OC)c1cccc2ccccc12 [Example 210, (2S,3S)-2-(methoxymethyl)-3-(2-methoxyphenyl)-3-(1-naphthyl)-2-[(4-pyrimidin-2-ylpiperazin-1-yl)carbonyl]propanenitrile] yielded an Emax [2, 3] of 132%, an IC50 [2, 4] of 0.016 µM and a melting point of 140 °C.
COC[C@@](C#N)(C(=O)N1CCN(c2ncccn2)CC1)[C@@H](c1ccccc1OC)c1cccc2ccccc12 [Example 211, (2R,3R)-2-(methoxymethyl)-3-(2-methoxyphenyl)-3-(1-naphthyl)-2-[(4-pyrimidin-2-ylpiperazin-1-yl)carbonyl]propanenitrile] gave an Emax [2, 3] of 78%, an IC50 [2, 4] of 0.268 µM and a melting point of 136 to 137 °C.
